Patent publication US20210244735A1, “COMPOSITIONS AND METHODS FOR TREATING MYELOFIBROSIS” (Impact Biomedicines, Inc., priority 2010, published 2021)
Counter-ions that a name gives are not always drawn. Like-named read-outs stand apart in the source and are kept apart here.

Test system: subjects with MF
Settings: for discontinuation: adverse event: number of subjects
[1] = at least possibly related, All Subjects (n=59)
[2] = at least possibly related, All Subjects, not transfusion dependent at study entry (n=37)
[3] = at least possibly related, MTD Cohort (n=40)
[4] = at least possibly related, MTD Cohort, not transfusion dependent at study entry (n=24)
[5] = at least possibly related, MTD cohort
[6] = at least possibly related, overall
[7] = number of patients who started at ≥680 mg

Question: Which “patients who discontinued treatment due to toxicity” value (59 patients, median follow-up 12 weeks) does the source give for `Cc1cnc(Nc2ccc(OCCN3CCCC3)cc2)nc1Nc1cccc(S(=O)(=O)NC(C)(C)C)c1` [TG101348, N-tert-butyl-3-[(5-methyl-2-{[4-(2-pyrrolidin-1-ylethoxy)phenyl]amino}pyrimidin-4-yl)amino]benzenesulfonamide dihydrochloride monohydrate] here?
Answer: 7

Question: And the “subjects with serious adverse events considered at least possibly related” value (MF-TG101348-001 and -002)?
Answer: 8 subjects

Question: And the “Grades 3/4 asymptomatic increase in ALT” value (MTD cohort)?
Answer: 8%

Question: And the “Grades 3/4 asymptomatic increase in AST” value (MTD cohort)?
Answer: 3%

Question: What about the “Grades 3/4 asymptomatic increase in alkaline phosphatase” value (MTD cohort) of the same compound?
Answer: 0%

Question: And the “Grades 3/4 asymptomatic increase in creatinine” value (MTD cohort)?
Answer: 0%

Question: And the “Grades 3/4 asymptomatic increase in serum lipase” value (MTD cohort)?
Answer: 15%

Question: And the “subjects who required dose-reduction during the first 6 cycles” value (MTD cohort (n=40))?
Answer: 70%

Question: And the “Anemia: New Transfusion Requirement on Study” value (MTD subjects not transfusion dependent at baseline (N=24), transfusion on at least 2 occasions for Hb <10 g/dL)?
Answer: 16 (67%) subjects (%)

Question: What about the “maximum tolerated dose (MTD)” value (Phase I, myelofibrosis) of the same compound?
Answer: 680 mg

Question: What about the “Grade 3/4 neutropenia” value (all patients, Example 1 data) of the same compound?
Answer: 14 % of patients

Question: And the “Grade 3/4 thrombocytopenia” value (all patients, Example 1 data)?
Answer: 25 % of patients

Question: What about the “Grade 3/4 neutropenia considered related” value (all subjects) of the same compound?
Answer: 10%

Question: And the “Grade 3/4 thrombocytopenia considered related” value (all subjects)?
Answer: 24%

Question: And the “Abdominal pain, Severity Grade 1-” value [1]?
Answer: 6 (10.2%) subjects (%)

Question: What about the “Abdominal pain, Severity Grade 3-4” value [1] of the same compound?
Answer: 0 subjects (%)

Question: And the “Alanine aminotransferase increased, Severity Grade 1-” value [1]?
Answer: 11 subjects (%)

Question: And the “Alanine aminotransferase increased, Severity Grade 3-4” value [1]?
Answer: 4 (6.8%) subjects (%)

Question: What about the “Anorexia, Severity Grade 1-” value [1] of the same compound?
Answer: 8 (13.6%) subjects (%)

Question: What about the “Anorexia, Severity Grade 3-4” value [1] of the same compound?
Answer: 0 subjects (%)

Question: And the “Aspartate aminotransferase increased, Severity Grade 1-” value [1]?
Answer: 15 subjects (%)

Question: And the “Aspartate aminotransferase increased, Severity Grade 3-4” value [1]?
Answer: 1 (1.7%) subjects (%)

Question: And the “Blood alkaline phosphatase increased, Severity Grade 1-” value [1]?
Answer: 10 subjects (%)

Question: What about the “Blood alkaline phosphatase increased, Severity Grade 3-4” value [1] of the same compound?
Answer: 0 subjects (%)

Question: And the “Blood creatinine increased, Severity Grade 1-” value [1]?
Answer: 14 subjects (%)

Question: What about the “Blood creatinine increased, Severity Grade 3-4” value [1] of the same compound?
Answer: 0 subjects (%)

Question: And the “Diarrhea, Severity Grade 1-” value [1]?
Answer: 32 subjects (%)

Question: What about the “Diarrhea, Severity Grade 3-4” value [1] of the same compound?
Answer: 6 (10.2%) subjects (%)

Question: What about the “Dry skin, Severity Grade 1-” value [1] of the same compound?
Answer: 6 (10.2%) subjects (%)

Question: And the “Dry skin, Severity Grade 3-4” value [1]?
Answer: 0 subjects (%)

Question: And the “Edema peripheral, Severity Grade 1-” value [1]?
Answer: 6 (10.2%) subjects (%)

Question: And the “Edema peripheral, Severity Grade 3-4” value [1]?
Answer: 0 subjects (%)

Question: What about the “Hyperlipasemia, Severity Grade 1-” value [1] of the same compound?
Answer: 10 subjects (%)

Question: And the “Hyperlipasemia, Severity Grade 3-4” value [1]?
Answer: 6 (10.2%) subjects (%)

Question: And the “Hypocalcemia, Severity Grade 1-” value [1]?
Answer: 7 (11.9%) subjects (%)

Question: And the “Hypocalcemia, Severity Grade 3-4” value [1]?
Answer: 1 (1.7%) subjects (%)

Question: What about the “Nausea, Severity Grade 1-” value [1] of the same compound?
Answer: 39 subjects (%)

Question: And the “Nausea, Severity Grade 3-4” value [1]?
Answer: 2 (3.4%) subjects (%)

Question: What about the “Neutropenia, Severity Grade 1-2” value [1] of the same compound?
Answer: 2 (3.4%) subjects (%)

Question: What about the “Neutropenia, Severity Grade 3-4” value [1] of the same compound?
Answer: 6 (10.2%) subjects (%)

Question: And the “Skin exfoliation, Severity Grade 1-” value [1]?
Answer: 8 (13.6%) subjects (%)

Question: And the “Skin exfoliation, Severity Grade 3-4” value [1]?
Answer: 0 subjects (%)

Question: And the “Thrombocytopenia, Severity Grade 1-2” value [1]?
Answer: 10 (17.0%) subjects (%)

Question: And the “Thrombocytopenia, Severity Grade 3-4” value [1]?
Answer: 14 (23.7%) subjects (%)

Question: What about the “Vomiting, Severity Grade 1-” value [1] of the same compound?
Answer: 32 subjects (%)

Question: What about the “Vomiting, Severity Grade 3-4” value [1] of the same compound?
Answer: 2 (3.4%) subjects (%)

Question: What about the “Anemia, Severity Grade 1-2” value [2] of the same compound?
Answer: 3 (8.1%) subjects (%)

Question: What about the “Anemia, Severity Grade 3-4” value [2] of the same compound?
Answer: 13 (35.1%) subjects (%)

Question: And the “Abdominal pain, Severity Grade 1-2” value [3]?
Answer: 4 (10.0%) subjects (%)

Question: And the “Abdominal pain, Severity Grade 3-” value [3]?
Answer: 0 subjects (%)

Question: What about the “Alanine aminotransferase increased, Severity Grade 1-2” value [3] of the same compound?
Answer: 9 (22.5%) subjects (%)

Question: What about the “Alanine aminotransferase increased, Severity Grade 3-” value [3] of the same compound?
Answer: 3 (7.5%) subjects (%)

Question: What about the “Anorexia, Severity Grade 1-2” value [3] of the same compound?
Answer: 6 (15.0%) subjects (%)

Question: What about the “Anorexia, Severity Grade 3-” value [3] of the same compound?
Answer: 0 subjects (%)

Question: And the “Aspartate aminotransferase increased, Severity Grade 1-2” value [3]?
Answer: 13 subjects (%)

Question: What about the “Aspartate aminotransferase increased, Severity Grade 3-” value [3] of the same compound?
Answer: 1 (2.5%) subjects (%)

Question: And the “Blood alkaline phosphatase increased, Severity Grade 1-2” value [3]?
Answer: 9 (22.5%) subjects (%)

Question: What about the “Blood alkaline phosphatase increased, Severity Grade 3-” value [3] of the same compound?
Answer: 0 subjects (%)

Question: What about the “Blood creatinine increased, Severity Grade 1-2” value [3] of the same compound?
Answer: 11 subjects (%)

Question: What about the “Blood creatinine increased, Severity Grade 3-” value [3] of the same compound?
Answer: 0 subjects (%)

Question: What about the “Diarrhea, Severity Grade 1-2” value [3] of the same compound?
Answer: 25 subjects (%)

Question: What about the “Diarrhea, Severity Grade 3-” value [3] of the same compound?
Answer: 5 subjects (%)

Question: And the “Dry skin, Severity Grade 1-2” value [3]?
Answer: 6 (15%) subjects (%)

Question: What about the “Dry skin, Severity Grade 3-” value [3] of the same compound?
Answer: 0 subjects (%)

Question: And the “Edema peripheral, Severity Grade 1-2” value [3]?
Answer: 4 (10.0%) subjects (%)

Question: What about the “Edema peripheral, Severity Grade 3-” value [3] of the same compound?
Answer: 0 subjects (%)

Question: And the “Hyperlipasemia, Severity Grade 1-2” value [3]?
Answer: 9 (22.5%) subjects (%)

Question: What about the “Hyperlipasemia, Severity Grade 3-” value [3] of the same compound?
Answer: 6 subjects (%)

Question: And the “Hypocalcemia, Severity Grade 1-2” value [3]?
Answer: 6 (15.0%) subjects (%)

Question: What about the “Hypocalcemia, Severity Grade 3-” value [3] of the same compound?
Answer: 1 (2.5%) subjects (%)

Question: What about the “Nausea, Severity Grade 1-2” value [3] of the same compound?
Answer: 31 subjects (%)

Question: And the “Nausea, Severity Grade 3-” value [3]?
Answer: 2 (5.0%) subjects (%)

Question: And the “Neutropenia, Severity Grade 1-2” value [3]?
Answer: 2 (5.0%) subjects (%)

Question: And the “Neutropenia, Severity Grade 3-4” value [3]?
Answer: 4 (10.0%) subjects (%)

Question: What about the “Skin exfoliation, Severity Grade 1-2” value [3] of the same compound?
Answer: 8 (20.0%) subjects (%)

Question: What about the “Skin exfoliation, Severity Grade 3-” value [3] of the same compound?
Answer: 0 subjects (%)

Question: And the “Thrombocytopenia, Severity Grade 1-2” value [3]?
Answer: 8 (20.0%) subjects (%)

Question: And the “Thrombocytopenia, Severity Grade 3-4” value [3]?
Answer: 11 (27.5%) subjects (%)

Question: And the “Vomiting, Severity Grade 1-2” value [3]?
Answer: 27 subjects (%)

Question: What about the “Vomiting, Severity Grade 3-” value [3] of the same compound?
Answer: 1 (2.5%) subjects (%)

Question: And the “Anemia, Severity Grade 1-2” value [4]?
Answer: 2 (8.3%) subjects (%)

Question: What about the “Anemia, Severity Grade 3-4” value [4] of the same compound?
Answer: 13 (54.2%) subjects (%)

Question: What about the “grade 3 diarrhea” value [5] of the same compound?
Answer: 13 % of subjects

Question: What about the “grade 3 nausea” value [5] of the same compound?
Answer: 5 % of subjects

Question: And the “grade 3 vomiting” value [5]?
Answer: 3 % of subjects

Question: And the “grade 3 diarrhea” value [6]?
Answer: 10 % of subjects

Question: And the “grade 3 nausea” value [6]?
Answer: 3 % of subjects

Question: And the “grade 3 vomiting” value [6]?
Answer: 3 % of subjects

Question: What about the “subjects discontinued because of adverse events” value (extension study, 43 subjects, after 24 to 46 weeks on therapy) of the same compound?
Answer: 3

Question: What about the “subjects discontinued for treatment-related adverse events” value (first 6 cycles of therapy, 59 subjects) of the same compound?
Answer: 6

Question: And the “diarrhea Gr3” value [7]?
Answer: 3

Question: What about the “nausea Gr3” value [7] of the same compound?
Answer: 1

Question: And the “vomiting Gr3” value [7]?
Answer: 1

Question: And the “discontinuation: adverse event” value (MTD (initiated at 680 or 800 mg/day), 40 enrolled)?
Answer: 5

Question: What about the “discontinuation: adverse event” value (Overall, 59 enrolled) of the same compound?
Answer: 6

Question: And the “Grade 3/4 anemia considered related” value (of 37 subjects who were not transfusion dependent at baseline)?
Answer: 35%

Question: And the “maximum tolerated dose (MTD)” value (oral once daily, dose cohorts 30 to 800 mg per day)?
Answer: 680 mg/day

Question: And the “Grades 3/4 asymptomatic increase in ALT” value (overall)?
Answer: 7%

Question: What about the “Grades 3/4 asymptomatic increase in AST” value (overall) of the same compound?
Answer: 2%

Question: And the “Grades 3/4 asymptomatic increase in alkaline phosphatase” value (overall)?
Answer: 0%
